Experimental data as given in ChEMBL document CHEMBL1764973 (J Med Chem, 2011).

Experiments:
[1] = Binding affinity to benzodiazepine binding site of GABAA receptor
[2] = molecular target: Muscarinic acetylcholine receptor M5 (Homo sapiens) (UniProt P08912); settings: 10 uM
[3] = molecular target: D(3) dopamine receptor (Homo sapiens) (UniProt P35462); settings: 10 uM
[4] = molecular target: Cannabinoid receptor 1 (Homo sapiens, UniProt P21554); assay: Displacement of [3H]CP55940 from CB1 receptor
Sequence of Cannabinoid receptor 1 (P21554 whole entry): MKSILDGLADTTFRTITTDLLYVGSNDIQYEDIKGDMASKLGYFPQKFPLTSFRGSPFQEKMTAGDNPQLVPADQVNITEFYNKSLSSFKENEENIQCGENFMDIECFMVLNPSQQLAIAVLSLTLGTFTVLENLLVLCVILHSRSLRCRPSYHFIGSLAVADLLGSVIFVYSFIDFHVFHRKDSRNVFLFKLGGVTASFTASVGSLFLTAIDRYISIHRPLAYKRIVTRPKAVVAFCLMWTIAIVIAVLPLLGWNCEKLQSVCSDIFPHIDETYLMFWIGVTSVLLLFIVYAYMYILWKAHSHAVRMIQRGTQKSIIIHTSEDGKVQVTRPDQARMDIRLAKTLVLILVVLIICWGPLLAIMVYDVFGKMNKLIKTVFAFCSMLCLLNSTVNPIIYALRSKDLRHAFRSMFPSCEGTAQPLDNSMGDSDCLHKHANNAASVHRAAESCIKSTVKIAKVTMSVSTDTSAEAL

[5] = molecular target: Sodium-dependent dopamine transporter (Homo sapiens) (UniProt Q01959); settings: 10 uM
[6] = molecular target: 5-hydroxytryptamine receptor 2B (Homo sapiens) (UniProt P41595); settings: 10 uM
Sequence of 5-hydroxytryptamine receptor 2B (Homo sapiens) (P41595 whole entry): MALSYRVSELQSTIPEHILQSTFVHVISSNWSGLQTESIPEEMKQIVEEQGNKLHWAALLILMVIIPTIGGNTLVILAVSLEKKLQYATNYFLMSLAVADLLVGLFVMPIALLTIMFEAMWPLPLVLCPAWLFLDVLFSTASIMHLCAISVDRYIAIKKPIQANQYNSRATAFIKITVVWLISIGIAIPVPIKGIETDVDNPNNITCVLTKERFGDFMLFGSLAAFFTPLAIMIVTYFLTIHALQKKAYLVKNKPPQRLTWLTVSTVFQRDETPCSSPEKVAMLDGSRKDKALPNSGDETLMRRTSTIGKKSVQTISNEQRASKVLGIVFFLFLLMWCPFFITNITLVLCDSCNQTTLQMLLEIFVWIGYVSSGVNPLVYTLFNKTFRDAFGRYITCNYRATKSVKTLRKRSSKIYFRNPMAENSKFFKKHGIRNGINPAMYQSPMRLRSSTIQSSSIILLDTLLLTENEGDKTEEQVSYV

[7] = molecular target: 5-hydroxytryptamine receptor 7 (Homo sapiens) (UniProt P34969); settings: 10 uM
[8] = molecular target: 5-hydroxytryptamine receptor 6 (Homo sapiens) (UniProt P50406); settings: 10 uM
[9] = molecular target: Muscarinic acetylcholine receptor M4 (Homo sapiens) (UniProt P08173); settings: 10 uM
[10] = molecular target: Alpha-2C adrenergic receptor (Homo sapiens) (UniProt P18825); settings: 10 uM
[11] = molecular target: D(1B) dopamine receptor (Homo sapiens, UniProt P21918); assay: Binding affinity to opamine D5 receptor by radioligand binding assay
[12] = molecular target: Translocator protein (Rattus norvegicus, UniProt P16257)
Sequence of Translocator protein (P16257 whole entry, looked up): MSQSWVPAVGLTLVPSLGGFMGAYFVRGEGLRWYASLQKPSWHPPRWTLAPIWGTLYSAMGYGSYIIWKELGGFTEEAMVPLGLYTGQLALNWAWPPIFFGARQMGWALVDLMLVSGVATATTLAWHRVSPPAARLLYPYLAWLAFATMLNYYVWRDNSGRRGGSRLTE

[13] = molecular target: Histamine H4 receptor (Homo sapiens) (UniProt Q9H3N8); settings: 10 uM
[14] = molecular target: Alpha-2A adrenergic receptor (Homo sapiens) (UniProt P08913); settings: 10 uM
[15] = molecular target: 5-hydroxytryptamine receptor 1A (Homo sapiens) (UniProt P08908); settings: 10 uM
[16] = molecular target: 5-hydroxytryptamine receptor 2C (Homo sapiens) (UniProt P28335); settings: 10 uM
[17] = molecular target: Muscarinic acetylcholine receptor M1 (Homo sapiens) (UniProt P11229); settings: 10 uM
Sequence of Muscarinic acetylcholine receptor M1 (Homo sapiens) (P11229 whole entry): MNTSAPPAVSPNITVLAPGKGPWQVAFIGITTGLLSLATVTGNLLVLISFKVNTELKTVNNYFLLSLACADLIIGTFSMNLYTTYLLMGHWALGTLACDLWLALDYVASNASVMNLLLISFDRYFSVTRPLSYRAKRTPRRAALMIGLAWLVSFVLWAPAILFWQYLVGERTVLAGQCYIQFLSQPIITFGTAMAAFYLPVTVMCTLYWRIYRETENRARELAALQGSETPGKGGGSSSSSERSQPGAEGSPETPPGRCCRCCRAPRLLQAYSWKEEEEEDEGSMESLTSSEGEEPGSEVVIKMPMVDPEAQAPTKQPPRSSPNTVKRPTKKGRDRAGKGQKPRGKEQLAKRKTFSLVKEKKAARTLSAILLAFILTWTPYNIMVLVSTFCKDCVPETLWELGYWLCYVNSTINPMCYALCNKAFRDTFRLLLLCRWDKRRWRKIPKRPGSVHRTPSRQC

[18] = molecular target: D(1A) dopamine receptor (Homo sapiens) (UniProt P21728); settings: 10 uM
[19] = molecular target: Alpha-2B adrenergic receptor (Homo sapiens) (UniProt P18089); settings: 10 uM
[20] = molecular target: T1, 5-hydroxytryptamine receptor 1D (Homo sapiens, UniProt P28221); settings: 10 uM
T1 sequence (P28221 whole entry): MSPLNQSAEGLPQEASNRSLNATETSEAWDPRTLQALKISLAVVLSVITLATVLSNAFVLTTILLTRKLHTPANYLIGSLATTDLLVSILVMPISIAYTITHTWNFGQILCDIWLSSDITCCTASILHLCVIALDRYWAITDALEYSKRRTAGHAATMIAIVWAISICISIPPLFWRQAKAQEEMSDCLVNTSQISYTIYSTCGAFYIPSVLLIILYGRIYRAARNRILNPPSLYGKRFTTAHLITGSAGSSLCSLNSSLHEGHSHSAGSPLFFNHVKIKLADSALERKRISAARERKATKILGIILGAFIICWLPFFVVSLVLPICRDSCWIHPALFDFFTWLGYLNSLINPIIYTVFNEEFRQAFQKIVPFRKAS

[21] = molecular target: Delta-type opioid receptor (Homo sapiens) (UniProt P41143); settings: 10 uM
Sequence of Delta-type opioid receptor (Homo sapiens) (P41143 whole entry): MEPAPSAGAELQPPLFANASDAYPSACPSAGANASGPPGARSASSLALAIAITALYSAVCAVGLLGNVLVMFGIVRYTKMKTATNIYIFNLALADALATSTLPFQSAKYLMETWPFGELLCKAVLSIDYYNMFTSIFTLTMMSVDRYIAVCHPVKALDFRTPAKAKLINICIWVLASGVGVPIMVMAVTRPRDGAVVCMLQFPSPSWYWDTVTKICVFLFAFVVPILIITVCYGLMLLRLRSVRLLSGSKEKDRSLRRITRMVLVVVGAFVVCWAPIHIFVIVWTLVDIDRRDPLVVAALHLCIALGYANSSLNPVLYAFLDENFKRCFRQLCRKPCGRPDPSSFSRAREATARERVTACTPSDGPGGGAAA

[22] = molecular target: Sigma non-opioid intracellular receptor 1 (Homo sapiens) (UniProt Q99720); settings: 10 uM
Sequence of Sigma non-opioid intracellular receptor 1 (Homo sapiens) (Q99720 whole entry): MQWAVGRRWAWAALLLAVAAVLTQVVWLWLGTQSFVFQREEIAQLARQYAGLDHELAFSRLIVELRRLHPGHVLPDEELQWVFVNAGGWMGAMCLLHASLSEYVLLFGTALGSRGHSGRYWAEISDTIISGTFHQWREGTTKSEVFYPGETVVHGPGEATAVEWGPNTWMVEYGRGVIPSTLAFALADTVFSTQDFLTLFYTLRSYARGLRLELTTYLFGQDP

[23] = molecular target: Vasopressin V1b receptor (Homo sapiens) (UniProt P47901); settings: 10 uM
[24] = molecular target: Histamine H3 receptor (Homo sapiens) (UniProt Q9Y5N1); settings: 10 uM
Sequence of Histamine H3 receptor (Homo sapiens) (Q9Y5N1 whole entry): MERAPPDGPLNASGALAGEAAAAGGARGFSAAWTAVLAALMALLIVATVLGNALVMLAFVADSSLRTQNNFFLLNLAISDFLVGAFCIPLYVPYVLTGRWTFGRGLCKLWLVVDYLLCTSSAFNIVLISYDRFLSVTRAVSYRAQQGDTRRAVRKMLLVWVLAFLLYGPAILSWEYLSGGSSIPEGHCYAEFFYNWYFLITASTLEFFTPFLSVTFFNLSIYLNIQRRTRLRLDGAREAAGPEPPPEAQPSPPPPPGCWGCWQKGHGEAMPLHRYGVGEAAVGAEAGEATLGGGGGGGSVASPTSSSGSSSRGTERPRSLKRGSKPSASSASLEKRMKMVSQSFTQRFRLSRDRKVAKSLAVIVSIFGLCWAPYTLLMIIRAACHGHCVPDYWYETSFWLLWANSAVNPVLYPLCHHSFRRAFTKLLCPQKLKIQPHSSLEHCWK

[25] = molecular target: D(2) dopamine receptor (Homo sapiens) (UniProt P14416); settings: 10 uM
[26] = molecular target: Alpha-1A adrenergic receptor (Homo sapiens) (UniProt P35348); settings: 10 uM
[27] = molecular target: D(4) dopamine receptor (Homo sapiens) (UniProt P21917); settings: 10 uM
[28] = molecular target: Mu-type opioid receptor (Homo sapiens) (UniProt P35372); settings: 10 uM
[29] = molecular target: 5-hydroxytryptamine receptor 2A (Homo sapiens) (UniProt P28223); settings: 10 uM
[30] = molecular target: 5-hydroxytryptamine receptor 5A (Homo sapiens) (UniProt P47898); settings: 10 uM
[31] = molecular target: 5-hydroxytryptamine receptor 3A (Homo sapiens) (UniProt P46098); settings: 10 uM
[32] = molecular target: Histamine H1 receptor (Homo sapiens) (UniProt P35367); settings: 10 uM
[33] = molecular target: 5-hydroxytryptamine receptor 1E (Homo sapiens) (UniProt P28566); settings: 10 uM
[34] = molecular target: Muscarinic acetylcholine receptor M3 (Homo sapiens) (UniProt P20309); settings: 10 uM
Sequence of Muscarinic acetylcholine receptor M3 (Homo sapiens) (P20309 whole entry, looked up): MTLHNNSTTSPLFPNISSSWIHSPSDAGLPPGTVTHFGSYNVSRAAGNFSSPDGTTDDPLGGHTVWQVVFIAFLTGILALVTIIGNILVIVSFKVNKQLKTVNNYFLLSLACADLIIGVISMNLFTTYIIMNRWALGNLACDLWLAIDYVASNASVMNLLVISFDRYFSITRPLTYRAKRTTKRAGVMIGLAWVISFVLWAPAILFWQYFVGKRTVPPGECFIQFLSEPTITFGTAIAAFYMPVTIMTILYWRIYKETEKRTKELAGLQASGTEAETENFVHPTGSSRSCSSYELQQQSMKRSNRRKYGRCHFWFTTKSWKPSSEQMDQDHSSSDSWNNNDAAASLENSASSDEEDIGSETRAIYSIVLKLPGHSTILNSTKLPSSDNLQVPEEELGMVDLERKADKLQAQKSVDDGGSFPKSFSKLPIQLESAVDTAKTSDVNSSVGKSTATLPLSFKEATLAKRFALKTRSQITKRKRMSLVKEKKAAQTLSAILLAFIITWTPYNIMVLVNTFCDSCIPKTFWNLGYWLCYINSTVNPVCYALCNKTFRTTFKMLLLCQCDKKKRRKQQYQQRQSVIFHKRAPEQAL

[35] = molecular target: Kappa-type opioid receptor (Homo sapiens, UniProt P41145); assay: Binding affinity to kappa opioid receptor by radioligand binding assay
[36] = molecular target: Sodium-dependent noradrenaline transporter (Homo sapiens) (UniProt P23975); settings: 10 uM
[37] = molecular target: Beta-3 adrenergic receptor (Homo sapiens) (UniProt P13945); settings: 10 uM
Sequence of Beta-3 adrenergic receptor (Homo sapiens) (P13945 whole entry, looked up): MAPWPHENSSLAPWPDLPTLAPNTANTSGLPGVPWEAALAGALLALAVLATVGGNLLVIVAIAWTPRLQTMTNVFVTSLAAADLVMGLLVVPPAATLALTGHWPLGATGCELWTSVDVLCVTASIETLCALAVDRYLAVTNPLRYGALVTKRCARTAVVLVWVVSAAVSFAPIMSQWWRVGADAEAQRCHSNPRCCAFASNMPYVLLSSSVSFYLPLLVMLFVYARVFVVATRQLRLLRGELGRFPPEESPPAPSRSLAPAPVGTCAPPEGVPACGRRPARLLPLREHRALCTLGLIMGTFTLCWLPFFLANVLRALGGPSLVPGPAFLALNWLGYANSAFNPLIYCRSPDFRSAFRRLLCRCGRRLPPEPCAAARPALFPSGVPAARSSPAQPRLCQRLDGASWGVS

[38] = molecular target: Vasopressin V2 receptor (Homo sapiens) (UniProt P30518); settings: 10 uM
[39] = molecular target: Vasopressin V1a receptor (Homo sapiens) (UniProt P37288); settings: 10 uM
[40] = molecular target: T1, 5-hydroxytryptamine receptor 1D; assay: Binding affinity to 5HT1D receptor by radioligand binding assay
[41] = molecular target: Cannabinoid receptor 2 (Homo sapiens, UniProt P34972); assay: Displacement of [3H]CP55940 from CB2 receptor
Sequence of Cannabinoid receptor 2 (P34972 whole entry): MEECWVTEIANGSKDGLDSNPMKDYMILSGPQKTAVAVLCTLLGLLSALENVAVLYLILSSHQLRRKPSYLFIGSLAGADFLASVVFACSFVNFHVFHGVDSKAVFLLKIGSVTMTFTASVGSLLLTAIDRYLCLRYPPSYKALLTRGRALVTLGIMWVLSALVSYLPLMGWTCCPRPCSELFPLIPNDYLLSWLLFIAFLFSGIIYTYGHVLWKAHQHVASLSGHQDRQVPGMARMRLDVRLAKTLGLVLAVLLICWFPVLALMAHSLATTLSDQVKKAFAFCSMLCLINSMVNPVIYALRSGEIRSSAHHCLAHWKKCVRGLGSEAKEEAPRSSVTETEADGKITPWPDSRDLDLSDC

[42] = molecular target: Sodium-dependent serotonin transporter (Homo sapiens) (UniProt P31645); settings: 10 uM
[43] = molecular target: Muscarinic acetylcholine receptor M2 (Homo sapiens) (UniProt P08172); settings: 10 uM
[44] = molecular target: Alpha-1B adrenergic receptor (Homo sapiens) (UniProt P35368); settings: 10 uM
[45] = molecular target: Histamine H2 receptor (Homo sapiens) (UniProt P25021); settings: 10 uM
[46] = molecular target: Beta-1 adrenergic receptor (Homo sapiens) (UniProt P08588); settings: 10 uM

Sequence of Muscarinic acetylcholine receptor M5 (Homo sapiens) (P08912 whole entry): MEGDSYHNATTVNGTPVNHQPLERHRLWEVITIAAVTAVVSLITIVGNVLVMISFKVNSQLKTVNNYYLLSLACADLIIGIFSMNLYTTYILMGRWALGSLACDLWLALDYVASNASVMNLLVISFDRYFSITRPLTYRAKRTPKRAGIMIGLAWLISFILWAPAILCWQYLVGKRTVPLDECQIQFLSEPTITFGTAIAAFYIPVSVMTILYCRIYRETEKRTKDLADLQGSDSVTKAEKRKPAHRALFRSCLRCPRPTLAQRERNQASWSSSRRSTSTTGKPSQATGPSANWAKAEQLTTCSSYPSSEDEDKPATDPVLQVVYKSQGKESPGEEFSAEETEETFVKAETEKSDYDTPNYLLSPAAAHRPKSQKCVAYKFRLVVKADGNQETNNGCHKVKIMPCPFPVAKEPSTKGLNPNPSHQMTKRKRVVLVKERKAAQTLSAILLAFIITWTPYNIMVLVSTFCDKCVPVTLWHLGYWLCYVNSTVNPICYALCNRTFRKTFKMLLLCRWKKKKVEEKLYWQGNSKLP

COc1ccc(-c2c(Br)c(C(=O)NC3(C#N)CCOCC3)nn2-c2cccc(Br)c2)cc1
Ki [1]: > 10 µM

COc1ccc(-c2c(C)c(C(=O)NC3(C#N)CCCCC3)nn2-c2ccccc2Br)cc1
inhibition [2]: < 50% | inhibition [3]: < 50% | Ki [4]: 15.7 nM | inhibition [5]: < 50% | inhibition [6]: < 50% | inhibition [7]: < 50% | inhibition [8]: < 50% | inhibition [9]: < 50% | inhibition [10]: < 50% | Ki [11]: > 10 µM | Ki [12]: 279 nM | inhibition [13]: < 50% | inhibition [14]: < 50% | inhibition [15]: < 50% | inhibition [16]: < 50% | inhibition [17]: < 50% | inhibition [18]: < 50% | inhibition [19]: < 50% | inhibition [20]: < 50% | inhibition [21]: < 50% | inhibition [22]: < 50% | inhibition [23]: < 50% | inhibition [24]: < 50% | inhibition [25]: < 50% | inhibition [26]: < 50% | inhibition [27]: < 50% | inhibition [28]: < 50% | inhibition [29]: < 50% | inhibition [30]: < 50% | inhibition [31]: < 50% | inhibition [32]: < 50% | inhibition [33]: < 50% | inhibition [34]: < 50% | Ki [35]: 597 nM | inhibition [36]: < 50% | inhibition [37]: < 50% | inhibition [38]: < 50% | inhibition [39]: < 50% | Ki [40]: > 10 µM | Ki [41]: 2750 nM | Ki [1]: > 10 µM | inhibition [42]: < 50% | inhibition [43]: < 50% | inhibition [44]: < 50% | inhibition [45]: < 50% | inhibition [46]: < 50%

COc1ccc(-c2c(C)c(C(=O)NC3(C#N)CCOCC3)nn2-c2ccccc2F)cc1
Ki [4]: 115 nM | Ki [41]: 2460 nM | Ki [1]: > 10 µM

Cc1c(C(=O)NC2(C#N)CCCCC2)nn(-c2ccccc2Br)c1-c1ccccc1
Ki [1]: > 10 µM

N#Cc1c(C(=O)NC2(C#N)CCOCC2)nn(-c2ccccc2Br)c1-c1ccccc1
Ki [4]: 437 nM | Ki [12]: 3690 nM | Ki [41]: > 10000 nM | Ki [1]: > 10 µM

Cc1c(C(=O)NC2(C#N)CCOCC2)nn(-c2ccccc2I)c1-c1ccccc1
Ki [1]: > 10 µM

Cc1c(C(=O)NC2(C#N)CCOCC2)nn(-c2ccccc2Cl)c1-c1ccccc1
Ki [4]: > 10000 nM | Ki [12]: 436 nM | Ki [41]: > 10000 nM | Ki [1]: > 10 µM

COc1ccc(-c2c(C)c(C(=O)NC3(C#N)CCOCC3)nn2-c2cccc(Br)c2)cc1
Ki [4]: 680 nM | Ki [41]: 234 nM | Ki [1]: > 10 µM

N#CC1(NC(=O)c2cc(-c3ccccc3)n(-c3ccccc3Br)n2)CCOCC1
Ki [4]: 297 nM | Ki [12]: 3110 nM | Ki [41]: > 10000 nM | Ki [1]: > 10 µM

COc1ccc(-c2c(C#N)c(C(=O)NC3(C#N)CCOCC3)nn2-c2ccccc2I)cc1
Ki [4]: > 10000 nM | Ki [12]: 1920 nM | Ki [41]: 2370 nM | Ki [1]: > 10 µM

Cc1c(C(=O)NC2(C#N)CCOCC2)nn(-c2ccccc2Br)c1-c1ccccc1
Ki [1]: > 10 µM

Cc1c(C(=O)NC2(C#N)CCOCC2)nn(-c2ccccc2Br)c1-c1cccc(F)c1
Ki [4]: > 10000 nM | Ki [41]: > 10000 nM | Ki [1]: > 10 µM

Cc1c(C(=O)NC2(C#N)CCOCC2)nn(-c2ccccc2Br)c1-c1ccc(F)cc1
Ki [1]: > 10 µM

Cc1c(C(=O)NC2(C#N)CCOCC2)nn(-c2ccccc2F)c1-c1ccccc1
Ki [1]: > 10 µM

Cc1c(C(=O)NC2(C#N)CCOCC2)nn(-c2ccccc2-c2ccccc2)c1-c1ccccc1
Ki [1]: > 10 µM

Cc1c(C(=O)NC2(C#N)CCOCC2)nn(-c2cccc(Br)c2)c1-c1ccccc1
Ki [1]: > 10 µM

Cc1c(C(=O)NC2(C#N)CCOCC2)nn(-c2ccc(Br)cc2)c1-c1ccccc1
Ki [4]: 259 nM | Ki [41]: 655 nM | Ki [1]: > 10 µM

Cc1c(C(=O)NN2CCCCC2)nn(-c2ccc(Cl)cc2Cl)c1-c1ccc(Cl)cc1 [RIMONABANT]
Ki [1]: > 10 µM

Cc1c(C(=O)N(C)C2(C#N)CCOCC2)nn(-c2ccccc2Cl)c1-c1ccccc1
Ki [4]: > 10000 nM | Ki [12]: 880 nM | Ki [41]: > 10000 nM | Ki [1]: > 10 µM

CCC(C)N(C)C(=O)c1cc2ccccc2c(-c2ccccc2Cl)n1 (stereo not drawn) [PK-11195]
Ki [1]: > 10 µM
